Measured values reported in ChEMBL document CHEMBL1201862, “PubChem BioAssay data set” (2004).
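Briefly, cells in 96-well plates were exposed to five compound concentrations for 48 h, and endpoints were estimated by linear interpolation. GI50 = concentration required for 50% inhibition of growth.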 Active and inactive are the calls of the source. Rule as the data show it: active = GI50 up to about 1.1 µM and inactive = higher.

Assays:
Assay in all cases: inhibition of tumour cell growth, NCI panel, 48 h
[1] = system: SF-268
[2] = system: DU-145
[3] = system: UACC-257
[4] = system: A549
[5] = system: TK-10
[6] = system: HL-60
[7] = system: BT-549
[8] = system: IGROV-1
[9] = system: HCT-15
[10] = system: A498
[11] = system: MDA-MB-231
[12] = system: NCI-H23
[13] = system: U-251
[14] = system: SNB-75
[15] = system: M14
[16] = system: SF-295
[17] = system: Malme-3M
[18] = system: MCF7
[19] = system: NCI-H460
[20] = system: CCRF-CEM
[21] = system: SN12C
[22] = system: SK-MEL-5
[23] = system: SNB-19
[24] = system: NCI-H522
[25] = system: SK-MEL-28
[26] = system: 786-0
[27] = system: COLO 205
[28] = system: T47D
[29] = system: MOLT-4
[30] = system: UO-31
[31] = system: ACHN
[32] = system: OVCAR-5
[33] = system: PC-3
[34] = system: HT-29
[35] = system: SF-539
[36] = system: HCT-116
[37] = system: NCI-H226
[38] = system: NCI/ADR-RES
[39] = system: LOX IMVI
[40] = system: SK-MEL-2
[41] = system: MDA-MB-435
[42] = system: SK-OV-3
[43] = system: SW-620
[44] = system: KM12
[45] = system: UACC-62
[46] = system: MDA-N
[47] = system: Hs-578T
[48] = system: HOP-62
[49] = system: EKVX
[50] = system: OVCAR-4
[51] = system: RXF 393
[52] = system: CAKI-1
[53] = system: OVCAR-8
[54] = system: RPMI-8226
[55] = system: OVCAR-3
[56] = system: HCC 2998
[57] = system: HOP-92
[58] = system: K562
[59] = system: SR

CCOC(=O)C1(C/C=C/CCl)CCCC1=O (configuration not stated)
GI50 [1]: 25.4 µM (inactive)
GI50 [2]: 31.1 µM (inactive)
GI50 [3]: 35.2 µM (inactive)
GI50 [4]: 21.5 µM (inactive)
GI50 [5]: 21.1 µM (inactive)
GI50 [6]: 38.2 µM (inactive)
GI50 [7]: 18.2 µM (inactive)
GI50 [8]: 18.3 µM (inactive)
GI50 [9]: 18.9 µM
GI50 [10]: 25.2 µM (inactive)
GI50 [11]: 16.6 µM (inactive)
GI50 [12]: 18.8 µM (inactive)
GI50 [13]: 24.5 µM (inactive)
GI50 [14]: 19.8 µM (inactive)
GI50 [15]: 18.1 µM (inactive)
GI50 [16]: 37.2 µM (inactive)
GI50 [17]: 22.5 µM (inactive)
GI50 [18]: 16.4 µM (inactive)
GI50 [19]: 30.1 µM (inactive)
GI50 [20]: 19.5 µM (inactive)
GI50 [21]: 24.1 µM (inactive)
GI50 [22]: 15.6 µM (inactive)
GI50 [23]: 23 µM (inactive)
GI50 [24]: 23.7 µM (inactive)
GI50 [25]: 23 µM (inactive)
GI50 [26]: 22.8 µM (inactive)
GI50 [27]: 26 µM (inactive)
GI50 [28]: 23.1 µM (inactive)
GI50 [29]: 35.1 µM (inactive)
GI50 [30]: 20 µM (inactive)
GI50 [31]: 15.3 µM (inactive)
GI50 [32]: 17.8 µM (inactive)
GI50 [33]: 30.5 µM (inactive)
GI50 [34]: 24.2 µM (inactive)
GI50 [35]: 20.7 µM (inactive)
GI50 [36]: 17.2 µM (inactive)
GI50 [37]: 14.3 µM (inactive)
GI50 [38]: 19.5 µM (inactive)
GI50 [39]: 14.9 µM (inactive)
GI50 [40]: 19 µM (inactive)
GI50 [41]: 20.3 µM (inactive)
GI50 [42]: 33.3 µM (inactive)
GI50 [43]: 20.3 µM (inactive)
GI50 [44]: 20 µM (inactive)
GI50 [45]: 14.1 µM (inactive)
GI50 [46]: 17.9 µM (inactive)
GI50 [47]: 44 µM (inactive)
GI50 [48]: 20.5 µM (inactive)
GI50 [49]: 19.5 µM (inactive)
GI50 [50]: 29.6 µM (inactive)
GI50 [51]: 16.8 µM (inactive)
GI50 [52]: 29.6 µM (inactive)
GI50 [53]: 20.8 µM (inactive)

CC1(C)CC[C@]2(C)CC[C@]3(C)C(=CC[C@@H]4[C@@]5(C)CCC(=O)C(C)(C)[C@@H]5[C@H](O)C[C@]43C)[C@@H]2C1
GI50 [1]: 17.8 µM (inactive)
GI50 [2]: 18.2 µM (inactive)
GI50 [3]: 17.7 µM (inactive)
GI50 [4]: 20.3 µM (inactive)
GI50 [5]: 16.5 µM (inactive)
GI50 [6]: 29.5 µM (inactive)
GI50 [7]: 20.5 µM (inactive)
GI50 [8]: 17 µM (inactive)
GI50 [9]: 18.6 µM
GI50 [10]: 17.3 µM (inactive)
GI50 [11]: 11.5 µM (inactive)
GI50 [12]: 19.5 µM (inactive)
GI50 [13]: 16.9 µM (inactive)
GI50 [15]: 19 µM (inactive)
GI50 [16]: 17.6 µM (inactive)
GI50 [17]: 17.5 µM (inactive)
GI50 [18]: 19 µM (inactive)
GI50 [19]: 18 µM (inactive)
GI50 [20]: 30.8 µM (inactive)
GI50 [21]: 15.1 µM (inactive)
GI50 [22]: 17.4 µM (inactive)
GI50 [23]: 15.3 µM (inactive)
GI50 [24]: 17 µM (inactive)
GI50 [54]: 23 µM (inactive)
GI50 [25]: 17.6 µM (inactive)
GI50 [26]: 15.5 µM (inactive)
GI50 [27]: 17.4 µM (inactive)
GI50 [55]: 16.5 µM (inactive)
GI50 [28]: 17.3 µM (inactive)
GI50 [29]: 31.5 µM (inactive)
GI50 [31]: 16.9 µM (inactive)
GI50 [56]: 15.5 µM (inactive)
GI50 [32]: 16 µM (inactive)
GI50 [33]: 17.1 µM (inactive)
GI50 [34]: 17 µM (inactive)
GI50 [35]: 17.8 µM (inactive)
GI50 [36]: 16.3 µM (inactive)
GI50 [38]: 19.6 µM (inactive)
GI50 [39]: 17.1 µM (inactive)
GI50 [40]: 16 µM (inactive)
GI50 [41]: 19.9 µM (inactive)
GI50 [42]: 17.6 µM (inactive)
GI50 [43]: 19.8 µM (inactive)
GI50 [44]: 19.5 µM (inactive)
GI50 [45]: 15.9 µM (inactive)
GI50 [46]: 15.6 µM (inactive)
GI50 [57]: 17.5 µM (inactive)
GI50 [47]: 19.5 µM (inactive)
GI50 [48]: 17 µM (inactive)
GI50 [49]: 17.8 µM (inactive)
GI50 [50]: 18.1 µM (inactive)
GI50 [51]: 16.1 µM (inactive)
GI50 [52]: 18.3 µM (inactive)
GI50 [53]: 18.9 µM (inactive)

Cc1ccc(Nc2nc(=O)[nH]c(=O)[nH]2)cc1N=[N+]=[N-]
GI50 [1]: > 100 µM (inactive)
GI50 [2]: > 100 µM (inactive)
GI50 [3]: > 100 µM (inactive)
GI50 [4]: > 100 µM (inactive)
GI50 [5]: > 100 µM (inactive)
GI50 [6]: > 100 µM (inactive)
GI50 [7]: > 100 µM (inactive)
GI50 [58]: > 100 µM (inactive)
GI50 [8]: > 100 µM (inactive)
GI50 [9]: > 100 µM
GI50 [10]: > 100 µM (inactive)
GI50 [11]: > 100 µM (inactive)
GI50 [12]: > 100 µM (inactive)
GI50 [14]: > 100 µM (inactive)
GI50 [15]: > 100 µM (inactive)
GI50 [16]: > 100 µM (inactive)
GI50 [17]: > 100 µM (inactive)
GI50 [18]: > 100 µM (inactive)
GI50 [20]: > 100 µM (inactive)
GI50 [21]: > 100 µM (inactive)
GI50 [22]: > 100 µM (inactive)
GI50 [23]: > 100 µM (inactive)
GI50 [24]: > 100 µM (inactive)
GI50 [54]: > 100 µM (inactive)
GI50 [59]: > 100 µM (inactive)
GI50 [26]: > 100 µM (inactive)
GI50 [27]: > 100 µM (inactive)
GI50 [55]: > 100 µM (inactive)
GI50 [28]: > 100 µM (inactive)
GI50 [29]: > 100 µM (inactive)
GI50 [30]: > 100 µM (inactive)
GI50 [31]: > 100 µM (inactive)
GI50 [56]: > 100 µM (inactive)
GI50 [32]: > 100 µM (inactive)
GI50 [34]: > 100 µM (inactive)
GI50 [35]: > 100 µM (inactive)
GI50 [36]: > 100 µM (inactive)
GI50 [37]: > 100 µM (inactive)
GI50 [38]: > 100 µM (inactive)
GI50 [39]: > 100 µM (inactive)
GI50 [40]: > 100 µM (inactive)
GI50 [41]: > 100 µM (inactive)
GI50 [42]: > 100 µM (inactive)
GI50 [43]: > 100 µM (inactive)
GI50 [44]: > 100 µM (inactive)
GI50 [45]: > 100 µM (inactive)
GI50 [46]: > 100 µM (inactive)
GI50 [57]: > 100 µM (inactive)
GI50 [47]: > 100 µM (inactive)
GI50 [48]: > 100 µM (inactive)
GI50 [49]: > 100 µM (inactive)
GI50 [50]: > 100 µM (inactive)
GI50 [51]: > 100 µM (inactive)
GI50 [52]: > 100 µM (inactive)
GI50 [53]: > 100 µM (inactive)
